Like-named read-outs stand apart in the source and are kept apart here. Positions of bridges follow the written chain, without caps; N, C: chain ends. Residues, ends and D or L forms follow the SMILES beside them.
What was measured:
E. coli = assay: Antibacterial microdilution assay; format: cell-based, Escherichia coli; details: CA-MHB, 37 °C 48 h; for Antibacterial activity against E. coli: concentrations up to 80 µM
P. aeruginosa = assay: Antibacterial microdilution assay; format: cell-based; details: CA-MHB, 37 °C 48 h; for Antibacterial activity against P. aeruginosa: concentrations up to 80 µM
Aspergillus niger = details: 48 h
Bipolaris sorokiniana = details: 48 h
Alternaria alternata = details: 48 h
C. albicans = details: 48 h
[1] = test system: filamentous fungi and oomycetes; details: cited from earlier work
Fusarium oxysporum = details: 48 h
F. solani = details: 48 h
[2] = read-out: Antifungal activity IC50, F. graminearum, Table 1, native vs truncated forms, potato–dextrose broth, 10^4–10^5 conidia per mL, 25 °C 48 h, 50% inhibition of spore germination, light microscopy, three replicates
[3] = Table S1, microdilution, YPDB, OD600, growth control +, negative control -

| Compound | Antibacterial activity against E. coli (E. coli) | Antibacterial activity against P. aeruginosa (P. aeruginosa) | IC50 (F. graminearum; [2]) | IC50 (Aspergillus niger) | IC50 (Bipolaris sorokiniana) | IC50 (Alternaria alternata) | Growth of C. albicans at 1.25 µM peptide (C. albicans; [3]) | IC50 (Fusarium oxysporum) | IC50 (F. solani) | IC50 (F. graminearum; 48 h) | further results |
| --- | --- | --- | --- | --- | --- | --- | --- | --- | --- | --- | --- |
| CSCC[C@@H]1NC(=O)[C@@H]2CSSC[C@H](NC(=O)[C@H](CCC(=O)O)NC(=O)[C@H](CCC(N)=O)NC(=O)[C@H](C(C)C)NC(=O)[C@H](CCCNC(=N)N)NC(=O)[C@H](Cc3c[nH]c4ccccc34)NC(=O)[C@@H]3CCCN3C(=O)[C@H](CCC(=O)O)NC(=O)[C@H](CC(=O)O)NC(=O)[C@H](CCC(=O)O)NC(=O)[C@H](Cc3c[nH]cn3)NC(=O)[C@H](CCCNC(=N)N)NC(=O)[C@H](CCCNC(=N)N)NC1=O)C(=O)N[C@@H](C(C)C)C(=O)N[C@@H](CO)C(=O)N[C@@H](CCC(N)=O)C(=O)N[C@H](C(=O)N[C@@H](CCCNC(=N)N)C(=O)N[C@@H](CCCNC(=N)N)C(=O)N[C@@H](CCCNC(=N)N)C(=O)N[C@@H](CCCNC(=N)N)C(=O)NCC(=O)NCC(=O)NCC(=O)N[C@@H](CC(=O)O)C(=O)O)CSSC[C@H](NC(=O)[C@H](CO)NC(=O)CNC(=O)[C@H](CCCNC(=N)N)NC(=O)CNC(=O)[C@H](CO)NC(=O)CN)C(=O)N[C@@H](CCCNC(=N)N)C(=O)N[C@@H](CO)C(=O)N[C@@H](CCC(N)=O)C(=O)N2 [EcAMP1-WT] (H-GSGRGSCRSQCMRRHEDEPWRVQECVSQCRRRRGGGD-OH; disulfide 7-29, 11-25; N-terminus and C-terminus assumed) | inactive | inactive | 6.8 ± 1 µM | > 32 µM | 25.7 ± 3.6 µM | 18.4 ± 2.7 µM | MIC99 |  |  |  | IC50 (C. albicans): 0.625 µM; Growth of C. albicans at 0.625 µM peptide (C. albicans; Table S1, 0.625 µM, microdilution, YPDB, OD600, growth control +, negative control -): MIC50; MIC99, almost complete suppression of C. albicans (C. albicans; microdilution, YPDB, range 0.625–80 µM, OD600): 1.25 µM; IC50 (S. aureus; 48 h): 5 µM; Growth of S. aureus at 5 µM peptide (S. aureus; Table S2, 5 µM, microdilution, CA-MHB, 37 °C 48 h, OD600, growth control +, negative control -): MIC50; Growth of S. aureus at 10 µM peptide (S. aureus; Table S2, 10 µM, microdilution, CA-MHB, 37 °C 48 h, OD600, growth control +, negative control -): MIC95; Growth of S. aureus at 20 µM peptide (S. aureus; Table S2, 20 µM, microdilution, CA-MHB, 37 °C 48 h, OD600, growth control +, negative control -): MIC99; Number of microbes for which inhibition activity was registered [1]: 11; IC50 ([1]; read-out: IC50 against filamentous fungi and oomycetes): 4.5 to 18.2 µM |
| CSCC[C@@H]1NC(=O)[C@@H]2CSSC[C@H](NC(=O)[C@H](CCC(=O)O)NC(=O)[C@H](CCC(N)=O)NC(=O)[C@H](C(C)C)NC(=O)[C@H](CCCNC(=N)N)NC(=O)[C@H](Cc3c[nH]c4ccccc34)NC(=O)[C@@H]3CCCN3C(=O)[C@H](CCC(=O)O)NC(=O)[C@H](CC(=O)O)NC(=O)[C@H](CCC(=O)O)NC(=O)[C@H](Cc3c[nH]cn3)NC(=O)[C@H](CCCNC(=N)N)NC(=O)[C@H](CCCNC(=N)N)NC1=O)C(=O)N[C@@H](C(C)C)C(=O)N[C@@H](CO)C(=O)N[C@@H](CCC(N)=O)C(=O)N[C@H](C(=O)O)CSSC[C@H](N)C(=O)N[C@@H](CCCNC(=N)N)C(=O)N[C@@H](CO)C(=O)N[C@@H](CCC(N)=O)C(=O)N2 [EcAMP1-X1] (H-CRSQCMRRHEDEPWRVQECVSQC-OH; disulfide 1-23, 5-19 (inferred); N-terminus assumed) | absolutely inactive | absolutely inactive | 9 ± 1.4 µM | > 32 µM | > 32 µM | 21.1 ± 2.4 µM |  | 15.4 ± 1.1 µM | 6.9 ± 0.7 µM |  | Activity against C. albicans (C. albicans; microdilution, YPDB, concentrations up to 80 µM): absolutely inactive; Antibacterial activity against S. aureus (S. aureus; microdilution, CA-MHB, 37 °C 48 h, concentrations up to 80 µM): absolutely inactive |
| CSCC[C@@H]1NC(=O)[C@@H](N)CSSC[C@@H](C(=O)O)NC(=O)[C@H](CCC(=O)O)NC(=O)[C@H](CCC(N)=O)NC(=O)[C@H](C(C)C)NC(=O)[C@H](CCCNC(=N)N)NC(=O)[C@H](Cc2c[nH]c3ccccc23)NC(=O)[C@@H]2CCCN2C(=O)[C@H](CCC(=O)O)NC(=O)[C@H](CC(=O)O)NC(=O)[C@H](CCC(=O)O)NC(=O)[C@H](Cc2c[nH]cn2)NC(=O)[C@H](CCCNC(=N)N)NC(=O)[C@H](CCCNC(=N)N)NC1=O [EcAMP1-X2] (H-CMRRHEDEPWRVQEC-OH; disulfide 1-15) |  |  | 18.1 ± 2.1 µM | > 32 µM | > 32 µM | > 32 µM |  | 23.2 ± 2.6 µM | 11 ± 1.9 µM |  |  |
| CSCC[C@@H]1NC(=O)[C@@H]2CSSC[C@H](NC(=O)[C@H](CCC(=O)O)NC(=O)[C@H](CCC(N)=O)NC(=O)[C@H](C(C)C)NC(=O)[C@H](CCCNC(=N)N)NC(=O)[C@H](C)NC(=O)[C@@H]3CCCN3C(=O)[C@H](CCC(=O)O)NC(=O)[C@H](CC(=O)O)NC(=O)[C@H](CCC(=O)O)NC(=O)[C@H](Cc3c[nH]cn3)NC(=O)[C@H](CCCNC(=N)N)NC(=O)[C@H](CCCNC(=N)N)NC1=O)C(=O)N[C@@H](C(C)C)C(=O)N[C@@H](CO)C(=O)N[C@@H](CCC(N)=O)C(=O)N[C@H](C(=O)N[C@@H](CCCNC(=N)N)C(=O)N[C@@H](CCCNC(=N)N)C(=O)N[C@@H](CCCNC(=N)N)C(=O)N[C@@H](CCCNC(=N)N)C(=O)NCC(=O)NCC(=O)NCC(=O)N[C@@H](CC(=O)O)C(=O)O)CSSC[C@H](NC(=O)[C@H](CO)NC(=O)CNC(=O)[C@H](CCCNC(=N)N)NC(=O)CNC(=O)[C@H](CO)NC(=O)CN)C(=O)N[C@@H](CCCNC(=N)N)C(=O)N[C@@H](CO)C(=O)N[C@@H](CCC(N)=O)C(=O)N2 [EcAMP1-X3] (H-GSGRGSCRSQCMRRHEDEPARVQECVSQCRRRRGGGD-OH; disulfide 7-29, 11-25; N-terminus and C-terminus assumed) |  |  |  |  |  |  |  | 15 ± 2.1 µM | 8.6 ± 1.5 µM | 9.9 ± 1.9 µM |  |
| CSCC[C@@H]1NC(=O)[C@@H]2CSSC[C@H](NC(=O)[C@H](CCC(=O)O)NC(=O)[C@H](CCC(N)=O)NC(=O)[C@H](C(C)C)NC(=O)[C@H](CCCNC(=N)N)NC(=O)[C@H](Cc3c[nH]c4ccccc34)NC(=O)[C@@H]3CCCN3C(=O)[C@H](CCC(=O)O)NC(=O)[C@H](CC(=O)O)NC(=O)[C@H](CCC(=O)O)NC(=O)[C@H](Cc3c[nH]cn3)NC(=O)[C@H](CCCNC(=N)N)NC(=O)[C@H](CCCNC(=N)N)NC1=O)C(=O)N[C@@H](C(C)C)C(=O)N[C@@H](CO)C(=O)N[C@@H](CCC(N)=O)C(=O)N[C@H](C(=O)N[C@@H](CCCNC(=N)N)C(=O)N[C@@H](CCCNC(=N)N)C(=O)O)CSSC[C@H](NC(=O)[C@H](CO)NC(=O)CNC(=O)[C@H](CCCNC(=N)N)NC(=O)CNC(=O)[C@H](CO)NC(=O)CN)C(=O)N[C@@H](CCCNC(=N)N)C(=O)N[C@@H](CO)C(=O)N[C@@H](CCC(N)=O)C(=O)N2 [EcAMP1-X4] (H-GSGRGSCRSQCMRRHEDEPWRVQECVSQCRR-OH; disulfide 7-29, 11-25; N-terminus and C-terminus assumed) |  |  |  |  |  |  |  | 15.8 ± 1.6 µM | 7.8 ± 0.7 µM | 8.5 ± 1.2 µM |  |
| LL37: linear α-helical antimicrobial peptide cathelicidin, positive control (LLGDFFRKSKEKIGKEFKRIVQRIKDFLRNLVPRTES; Antibacterial peptide LL-37; UniProt P49913 134-170, looked up) [reference compound] |  |  |  |  |  |  | MIC99 |  |  |  | Growth of E. coli at 1.25 µM peptide (E. coli; Table S3, 1.25 µM, OD600, growth control +, negative control -): MIC99; Growth of P. aeruginosa at 1.25 µM peptide (P. aeruginosa; Table S4, 1.25 µM, OD600, growth control +, negative control -): MIC99; Growth of S. aureus at 0.625 µM peptide (S. aureus; Table S2, 0.625 µM, microdilution, CA-MHB, 37 °C 48 h, OD600, growth control +, negative control -): MIC50; Growth of S. aureus at 1.25 µM peptide (S. aureus; Table S2, 1.25 µM, microdilution, CA-MHB, 37 °C 48 h, OD600, growth control +, negative control -): MIC99 |

Reference: PMC9182383, “Rational Design of Plant Hairpin-like Peptide EcAMP1: Structural–Functional Correlations to Reveal Antibacterial and Antifungal Activity” (Molecules, 2022)
